The compounds below were run on rat small-intestinal brush border membrane vesicles (assay: Inhibitory effect on 33PO4 uptake into rat small-intestinal brush border membrane vesicles (rapid filtration method)). Settings: 33PO4 uptake into rat small-intestinal BBMVs; test compound 1 µM; reacted for 60 seconds.
Format: biochemical
Method in brief: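 Uptake of ^33PO4 was measured by rapid filtration and liquid scintillation counting of filter-retained vesicles, after quenching with ice-cold 110 mM NaCl/1 mM KH2PO4/10 mM HEPES pH 7.5. Vesicles were brush border membranes from the upper small intestine of female Wistar rats aged 4–5 weeks.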

Compound	Rate of uptake inhibition (%) (1 µM)
COCCOc1cc(NC(=O)C2=C(O)[C@@]3(C)CCCN3N(Cc3cccc(F)c3F)C2=O)c(-c2cccc(OC)c2OC)cc1C(F)(F)F [Example 92]	81%
(4aS)-1-[(5,6-Difluoro-1H-indol-7-yl)methyl]-4-hydroxy-N-[5-methyl-2-(trifluoromethyl)furan-3-yl]-2-oxo-5,6,7,8-tetrahydro-4aH-pyrido[1,2-b]pyridazine-3-carboxamide [Example 17]	33%
CN1N(Cc2cccc(F)c2F)C(=O)C(C(=O)Nc2ccc(C(F)(F)F)cc2-c2ncnc(C#N)c2Cl)=C(O)C1(C)C [Example 312]	74%
(4aS)-1-[(3-Fluorophenyl)methyl]-4-hydroxy-N-[5-methyl-2-(trifluoromethyl)furan-3-yl]-2-oxo-5,6,7,8-tetrahydro-4aH-pyrido[1,2-b]pyridazine-3-carboxamide [Example 16]	38%
C[C@]12CCCN1N(Cc1cc(F)cc(F)c1)C(=O)C(C(=O)Nc1cc(F)c(Br)c(F)c1)=C2O [Example 190]	84%
C#Cc1ccc(CN2C(=O)C(C(=O)Nc3ccc(C(F)(F)F)cc3-c3cc(C(F)(F)F)ncn3)=C(O)[C@@]3(C)CCCN23)c(F)c1F [Example 126]	71%
Cc1cccc(CN2C(=O)C(C(=O)Nc3ccc(C(F)(F)F)cc3-c3ccc(C(F)(F)F)nc3)=C(O)[C@@]3(C)CCCN23)c1F [Example 205]	86%
C[C@]12CCCN1N(Cc1c(Cl)cc(OCCN3CCOCC3)cc1Cl)C(=O)C(C(=O)Nc1ccc(C(F)(F)F)nc1-c1ccc(C(F)(F)F)nc1)=C2O.Cl [Example 148, (4aR)-1-[[2,6-Dichloro-4-(2-morpholin-4-ylethoxy)phenyl]methyl]-4-hydroxy-4a-methyl-2-oxo-N-[6-(trifluoromethyl)-2-16-(trifluoromethyl)pyridin-3-yl]pyridin-1-yl]-6,7-dihydro-5H-pyrrolo[1,2-bipyridazine-3-carboxamide hydrochloride]	75%
CN1N(Cc2ccc(OCCCCOC[C@H](O)CO)c(F)c2F)C(=O)C(C(=O)Nc2ccc(C(F)(F)F)cc2-c2ccc(C(F)(F)F)nc2)=C(O)C12CCCC2 [Example 387]	23%
Cc1cc(NC(=O)C2=C(O)[C@@H]3CCCN3N(Cc3cccc(F)c3)C2=O)c(C(F)(F)F)o1 [Example 1, (4aS)-1-[(3-Fluorophenyl)methyl]-4-hydroxy-N-[5-methyl-2-(trifluoromethyl)furan-3-yl]-2-oxo-4a,5,6,7-tetrahydropyrrolo[1,2-b]pyridazine-3-carboxamide]	28%
CN1[C@@H](C(C)(C)C)C(O)=C(C(=O)Nc2ccc(C(F)(F)F)cc2-c2ccc(C(F)(F)F)nc2)C(=O)N1Cc1ccc(OCCN2CCOCC2)c(F)c1F [Example 266]	62%
CN1N(Cc2ccc(OCCN3CCN(CCO)CC3)c(F)c2F)C(=O)C(C(=O)Nc2ccc(C(F)(F)F)cc2-c2cc(C(F)(F)F)ncn2)=C(O)C12CCCC2 [Example 376]	33%
COc1cccc(-c2cc(C(F)(F)F)ccc2NC(=O)C2=C(O)[C@@]3(C)CCCN3N(Cc3ccc(CCCOCCOCCOCCO)c(F)c3F)C2=O)c1OC [Example 142]	76%
CN1N(Cc2cccc(F)c2F)C(=O)C(C(=O)Nc2ccc(C(F)(F)F)cc2-c2cc(C(F)(F)F)ncn2)=C(O)C12CCC2 [Example 300]	74%
CN1N(Cc2ccc(OCCN3CCN(CCO)CC3)c(F)c2F)C(=O)C(C(=O)Nc2ccc(C(F)(F)F)cc2-c2cc(C(F)(F)F)ncn2)=C(O)C12CCC2 [Example 360]	21%
COc1cccc(-c2cc(C(F)(F)F)ccc2NC(=O)C2=C(O)[C@@]3(C)CCCN3N(Cc3ccc(C#CCOCCO)c(F)c3F)C2=O)c1OC [Example 137]	92%
C[C@]12CCCN1N(Cc1cccc(Cl)c1F)C(=O)C(C(=O)Nc1ccc(C(F)(F)F)cc1-c1cc(C(F)(F)F)ncn1)=C2O [Example 209]	76%
CN1[C@@H](C(C)(C)C)C(O)=C(C(=O)Nc2ccc(Cl)cc2-c2cc(C(F)(F)F)ncn2)C(=O)N1Cc1ccc(OCCN2CCOCC2)c(F)c1F [Example 265, (3S)-3-tert-Butyl-N-[4-chloro-2-[6-(trinuoromethyl)pyrimidin-4-yl]phenyl]-1-[[2,3-difluoro-4-(2-morpholin-4-ylethoxy)phenyl]methyl]-4-hydroxy-2-methyl-6-oxo-3H-pyridazine-5-carboxamide]	52%
C[C@]12CCCN1N(Cc1ccc(F)cc1)C(=O)C(C(=O)Nc1ccc(C(F)(F)F)cc1-c1cc(C(F)(F)F)ncn1)=C2O [Example 208]	90%

Compound	Rate of uptake inhibition (%) (1 µM)
Cc1cccc(CN2C(=O)C(C(=O)Nc3ccc(C(F)(F)F)cc3-c3cc(C(F)(F)F)ncn3)=C(O)[C@@]3(C)CCCN23)c1 [Example 186]	88%
C[C@]12CCCN1N(Cc1c(F)cccc1F)C(=O)C(C(=O)Nc1ccc(C(F)(F)F)cc1-c1ccc(C(F)(F)F)nc1)=C2O [Example 203]	91%
COC(=O)c1cccc(-c2cc(C(F)(F)F)ccc2NC(=O)C2=C(O)[C@@]3(C)CCCN3N(Cc3cccc(F)c3F)C2=O)c1OC [Example 65]	98%
C[C@]12CCCN1N(Cc1cc(F)ccc1F)C(=O)C(C(=O)Nc1cc(F)c(Br)c(F)c1)=C2O [Example 193]	82%
COC(=O)[C@@H]1CCCN1CCOc1ccc(CN2C(=O)C(C(=O)Nc3ccc(C(F)(F)F)cc3-c3cc(C(F)(F)F)ncn3)=C(O)C3(CCC3)N2C)c(F)c1F [Example 355]	36%
CN1N(Cc2ccc(C#CCN3CCOCC3)c(F)c2F)C(=O)C(C(=O)Nc2ccc(C(F)(F)F)cc2-c2cc(C(F)(F)F)ncn2)=C(O)C1(C)C [Example 315, 2-[[2,3-Difluoro-4-(3-morpholin-4-ylprop-1-ynil)phenyl]methyl]-5-hydroxy-1,6,6-trimethyl-3-oxo-N-[4-(trifluoromethyl)-2-[6-(trifluoromethyl)pyrimidin-4-yl]phenyl]pyridazine-4-carboxamide]	63%
CN1N(Cc2ccc(OCCN3CCN(CCCO)CC3)c(F)c2F)C(=O)C(C(=O)Nc2ccc(C(F)(F)F)cc2-c2cc(C(F)(F)F)ncn2)=C(O)C12CCC2 [Example 362]	17%
Cc1c(-c2cc(C(F)(F)F)ccc2NC(=O)C2=C(O)C3(CCCCC3)N(C)N(Cc3ccc(OCCN4CCOCC4)c(F)c3F)C2=O)ncnc1C(F)(F)F [Example 296]	17%
CN1N(Cc2cccc(F)c2F)C(=O)C(C(=O)Nc2ccc(Br)c(C(F)(F)F)n2)=C(O)C12CCCC2 [Example 263]	66%
CN1N(Cc2ccc(OCCOCCOCCOCCNC(=O)[C@@H](O)[C@H](O)[C@@H](O)[C@@H](O)CO)c(F)c2F)C(=O)C(C(=O)Nc2ccc(C(F)(F)F)cc2-c2cc(C(F)(F)F)ncn2)=C(O)C12CCCC2 [Example 428, 7-[[2,3-Difluoro-4-[2-[2-[2-[2-[[(2S,3R,4S,5S)-2,3,4,5,6-pentahydroxyhexanoyl]amino]ethoxy]ethoxy]ethoxy]ethoxy]phenyl]methyl]-10-hydroxy-6-methyl-8-oxo-N-[4-(trifluoromethyl)-2-[6-(trifluoromethyl)pyrimidin-4-yl]phenyl]-6,7-diazaspiro[4. 5]dec-9-ene-9-carboxamide]	14%
COCCOc1cc(NC(=O)C2=C(O)C3(CCCC3)N(C)N(Cc3ccc(OCCN(C)CCOC)c(F)c3F)C2=O)c(-c2ncnc(C(F)(F)F)c2C)cc1C(F)(F)F [Example 439, 7-[[2,3-Difluoro-4-[2-[2-methoxyethyl(methyl)amino]ethoxy]phenyl]methyl]-10-hydroxy-N-[5-(2-methoxyethoxy)-2-[5-methyl-6-(trifluoromethyl)pyrimidin-4-yl]-4-(trifluoromethyl)phenyl]-6-methyl-8-oxo-6,7-diazaspiro[4.5]dec-9-ene-9-carboxamide]	35%
C[C@]12CCCN1N(Cc1ccc(F)c(F)c1)C(=O)C(C(=O)Nc1cc(F)c(Br)c(F)c1)=C2O [Example 191]	87%
CSc1ncc(-c2cc(C(F)(F)F)ccc2NC(=O)C2=C(O)[C@@]3(C)CCCN3N(Cc3ccc(OCCN4CCOCC4)c(F)c3F)C2=O)cn1 [Example 104]	73%
Cc1c(C#N)ncnc1-c1cc(C(F)(F)F)ccc1NC(=O)C1=C(O)C2(CCC2)N(C)N(Cc2ccc(OCCN3CCOCC3)c(F)c2F)C1=O [Example 283]	45%
C[C@]12CCCN1N(Cc1cc(F)ccc1F)C(=O)C(C(=O)Nc1ccc(C(F)(F)F)cc1-c1ccc(C(F)(F)F)nc1)=C2O [Example 172]	72%
CN1N(Cc2ccc(OCCOCCNC(=O)[C@@H](O)[C@H](O)[C@@H](O)[C@@H](O)CO)c(F)c2F)C(=O)C(C(=O)Nc2ccc(C(F)(F)F)cc2-c2cc(C(F)(F)F)ncn2)=C(O)C12CCCC2 [Example 427, 7-[[2,3-Difluoro-4-[2-[2-[[(2S,3R,4S,5S)-2,3,4,5,6-pentahydroxyhexanoyl]amino]ethoxy]ethoxy]phenyl]methyl]-10-hydroxy-6-methyl-8-oxoN-[4-(trifluoromethyl)-2-[6-(trifluoromethyl)pyrimidin-4-yl]phenyl]-6,7-diazaspiro[4.5]dec-9-ene-9-carboxamide]	12%
C[C@]12CCCN1N(Cc1ccc(F)c(F)c1)C(=O)C(C(=O)Nc1ccc(C(F)(F)F)cc1-c1cc(C(F)(F)F)ncn1)=C2O [Example 214]	91%
CN1N(Cc2ccc(OCCCCOCCO)c(F)c2F)C(=O)C(C(=O)Nc2ccc(C(F)(F)F)cc2-c2cc(C(F)(F)F)ncn2)=C(O)C12CCCC2 [Example 396]	38%
C[C@]12CCCN1N(Cc1c(F)cc(C#CCCOC[C@H](O)CO)cc1F)C(=O)C(C(=O)Nc1ccc(C(F)(F)F)cc1-c1ccc(C(F)(F)F)nc1)=C2O [Example 145]	78%
